# Where two headings read alike, the source gives them in different places.
# Legend:
# A. xylosoxidans 37F = assay: Antimicrobial microdilution assay (MIC/MBC); type: cell-based, Achromobacter xylosoxidans; details: Achromobacter xylosoxidans, 37F; for MIC: 37 °C, 24 h, read-out: MIC; for MBC: subcultivation, 24 h at 37 °C, read-out: MBC
# Procedure: (§1) The bacterial suspension (0.5 Mc Farland) was prepared, and twenty-fold dilutions of these suspensions were mixed in a 1:10 ratio with the corresponding polyphenol dilution (0.0039–1 mg/mL). Microtiter plates were incubated at 37 °C for 24 h. The lowest concentrations without visible growth (under a binocular microscope) were defined as MICs. The bactericidal concentrations (MBCs) were determined by serial subcultivation of 2 μL of the well’s content and further incubation for 24 h at 37 °C. Streptomycin (SigmaAldrich, Darmstadt, Germany) was used as a positive control. The polyphenols were obtained from Extrasynthese, Rhone, France (rutin, isoquercitrin) and SigmaAldrich, Germany (hesperetin, hesperidin, naringenin, naringin, taxifolin, morin, chlorogenic acid, ferulic acid, p-coumaric acid, and gallic acid). The stock compounds were prepared in ethanol (30%), and adequate ethanol concentrations were used as the negative control in the assays. Experiments were done in triplicate.
# [1] = tested on: E. coli (fluoroquinolones and ampicillin-resistant); parameters: method as in A previous investigation; details: ref A previous investigation; cited from earlier work
# K. pneumoniae Ni9 = assay: Antimicrobial microdilution assay (MIC/MBC); type: cell-based, Klebsiella pneumoniae; details: Klebsiella pneumoniae, NI9; for MIC: read-out: MIC; for MBC: subcultivation, 24 h at 37 °C, read-out: MBC
# Procedure: as §1
# K. pneumoniae IT977 = assay: Antimicrobial microdilution assay (MIC/MBC); type: cell-based, Klebsiella pneumoniae; details: Klebsiella pneumoniae, IT977; for MIC: read-out: MIC; for MBC: subcultivation, 24 h at 37 °C, read-out: MBC
# Procedure: as §1
# S. infantis 1371/1 = assay: Antimicrobial microdilution assay (MIC/MBC); type: cell-based, Salmonella Infantis; details: Salmonella enterica, 1371/1; for MIC: 37 °C, 24 h, read-out: MIC; for MBC: subcultivation, 24 h at 37 °C, read-out: MBC
# Procedure: as §1
# HaCaT cells = assay: Cytotoxicity in HaCaT cell line (crystal violet assay); type: cell-based, human; details: HaCaT; for IC50: Homo sapiens, 24 h treatment, crystal violet, read-out: IC50 (compound concentration that inhibited 50% of the cell growth)
# Procedure: For determination of the polyphenols’ cytotoxic effect, a crystal violet assay was used, with modifications. The cytotoxic effect of polyphenols was analyzed on spontaneously immortalized human skin keratinocytes (HaCaT, AddexBio No. T0020001, San Diego, CA, USA) cell lines. […] Cells (1 × 10^4 cells/well) were seeded in a 96-well plate (Sarstedt, Nümbrecht, Germany) 24 h before treatment. […] Cells were incubated with the compounds for 24 h. […] After crystal violet was removed, the plates were washed in a stream of tap water and left to air-dry at room temperature for 24 h. The absorbance was measured in a microplate reader (Multiskan™ FC Microplate Photometer, Thermo Scientific™) at 590 nm. The results were expressed as IC50 value in μg/mL. The criterion used to categorize the cytotoxic activity polyphenols was as follows: […] All analyses were performed in triplicate; each replicate was also quantified three times. Data were expressed as mean standard deviation, where applicable.
# [2] = tested on: Methicillin resistant S. aureus IBRS MRSA 011; assay: Antimicrobial microdilution assay (MIC/MBC); type: cell-based, Staphylococcus aureus
# Procedure: as §1
# P. aeruginosa MMA83 = assay: Antimicrobial microdilution assay (MIC/MBC); type: cell-based, Pseudomonas aeruginosa; details: for MIC: 37 °C, 24 h, read-out: MIC; for MBC: subcultivation, 24 h at 37 °C
# Procedure: as §1
# P. aeruginosa IBRS P001 = assay: Antimicrobial microdilution assay (MIC/MBC); type: cell-based, Pseudomonas aeruginosa; details: Pseudomonas aeruginosa, IBRSP001; for MIC: 37 °C, 24 h, read-out: MIC; for MBC: subcultivation, 24 h at 37 °C, read-out: MBC
# Procedure: as §1
# A. baumannii 6077/12 = assay: Antimicrobial microdilution assay (MIC/MBC); type: cell-based, Acinetobacter baumannii; details: Acinetobacter baumannii, 6077/12; for MIC: 37 °C, 24 h, read-out: MIC; for MBC: subcultivation, 24 h at 37 °C, read-out: MBC
# Procedure: as §1
# A. baumannii S2/2 = assay: Antimicrobial microdilution assay (MIC/MBC); type: cell-based, Acinetobacter baumannii; details: Acinetobacter baumannii, S2/2; for MIC: 37 °C, 24 h, read-out: MIC; for MBC: subcultivation, 24 h at 37 °C, read-out: MBC
# Procedure: as §1
# E. coli IMD989 = assay: Antimicrobial microdilution assay (MIC/MBC); type: cell-based, Escherichia coli; details: Escherichia coli, IMD989; for MIC: 37 °C, 24 h, read-out: MIC; for MBC: subcultivation, 24 h at 37 °C, read-out: MBC
# Procedure: as §1
# E. coli IBRS E003 = assay: Antimicrobial microdilution assay (MIC/MBC); type: cell-based, Escherichia coli; details: Escherichia coli, IBRSE003; for MIC: 37 °C, 24 h, read-out: MIC; for MBC: subcultivation, 24 h at 37 °C, read-out: MBC
# Procedure: as §1
# P. aeruginosa MTCC 2488 = tested on: P. aeruginosa MTCC 2488; parameters: method as in PMID 32057619; details: cited from earlier work
# [3] = tested on: P. aeruginosa IBRS P001 biofilm; assay: Crystal violet antibiofilm assay (biofilm formation); type: cell-based, Pseudomonas aeruginosa; details: MIC and sub-MIC, 24 h, crystal violet, Figure 1
# Procedure: After incubation, each well was washed twice with sterile PBS (phosphate-buffered saline, pH 7.4) and fixed with methanol for 10 min. After removal of methanol the plate was air-dried. The biofilm was stained with 0.1% crystal violet (Bio-Merieux, Marcy l’Etoile, France) for 30 min. The plate was washed with water, air dried, and the stain was dissolved with 200 μL of 96% ethanol (Zorka, Sabac, Serbia). The absorbance was read at 620 nm on a Multiskan™ FC microplate photometer (Thermo Scientific™, Waltham, MA, USA). The results are presented as biofilm forming capacity (%) compared to control.
# [4] = Staphylococcus aureus, MRSA, 37 °C, 24 h, read-out: MIC
# [5] = Staphylococcus aureus, MRSA, subcultivation, 24 h at 37 °C, read-out: MBC
# [6] = Pseudomonas aeruginosa, MMA83, read-out: MBC
# [7] = Staphylococcus aureus, MRSA, 24 h
# [8] = restated in the discussion for two strains examined
SMILES,MIC (A. xylosoxidans 37F) [µg/mL],MBC (A. xylosoxidans 37F) [µg/mL],"MIC (K. pneumoniae Ni9; 37 °C, 24 h) [µg/mL]",MBC (K. pneumoniae Ni9) [µg/mL],"MIC (K. pneumoniae IT977; 37 °C, 24 h) [µg/mL]",MBC (K. pneumoniae IT977) [µg/mL],MIC (S. infantis 1371/1) [µg/mL],MBC (S. infantis 1371/1) [µg/mL],"MIC (P. aeruginosa MMA83; Pseudomonas aeruginosa, MMA83) [µg/mL]",MBC (P. aeruginosa MMA83; [6]) [µg/mL],MIC (P. aeruginosa IBRS P001) [µg/mL],MBC (P. aeruginosa IBRS P001) [µg/mL],MIC (A. baumannii 6077/12) [µg/mL],MBC (A. baumannii 6077/12) [µg/mL],MIC (A. baumannii S2/2) [µg/mL],MBC (A. baumannii S2/2) [µg/mL],MIC (E. coli IMD989) [µg/mL],MBC (E. coli IMD989) [µg/mL],MIC (E. coli IBRS E003) [µg/mL],MBC (E. coli IBRS E003) [µg/mL],also measured
"O=C(O)/C=C/c1ccc(O)cc1 [p-Coumaric Acid, p-coumaric acid]",1000,1000,1000,1000,1000,1000,1000,1000,500,1000,500,1000,500,500,500,500,1000,1000,> 1000,> 1000,"MIC [1]: 1000 µg/mL; cytotoxicity category (HaCaT cells; maximal tested concentrations (1 mg/mL)): no cytotoxicity (IC50 > 501 µg/mL = no cytotoxicity); IC50 (HaCaT cells): > 1000 µg/mL; MIC [2, 4]: 500 µg/mL; MBC [2, 5]: 1000 µg/mL"
"[H]/N=C(/N)N[C@H]1[C@H](O)[C@@H](O)[C@H](O[C@@H]2O[C@@H](C)[C@](O)(C=O)[C@H]2O[C@@H]2O[C@@H](CO)[C@H](O)[C@@H](O)[C@@H]2NC)[C@@H](N/C(N)=N\[H])[C@@H]1O [Streptomycin, reference compound]",> 1000,> 1000,> 1000,> 1000,> 1000,> 1000,> 1000,> 1000,> 1000,> 1000,50,100,> 1000,> 1000,> 1000,> 1000,1000,> 1000,100,200,"MBC [2, 7]: 800 µg/mL; MIC [2, 7]: 100 µg/mL"
"O=C1C[C@@H](c2ccc(O)cc2)Oc2cc(O)cc(O)c21 [Naringenin, naringenin]",1000,1000,250,500,1000,1000,> 1000,> 1000,1000,1000,250,500,500,500,500,500,1000,> 1000,500,1000,"IC50 (HaCaT cells): 528 ± 47 µg/mL; MIC ([2]; 37 °C, 24 h): 250 µg/mL; MIC [2, 4]: 250 µg/mL; MBC [2, 5]: 500 µg/mL"
"O=C(/C=C/c1ccc(O)c(O)c1)O[C@@H]1C[C@](O)(C(=O)O)C[C@@H](O)[C@H]1O [Chlorogenic Acid, chlorogenic acid]",1000,> 1000,> 1000,> 1000,> 1000,> 1000,> 1000,> 1000,1000,> 1000,500,1000,1000,1000,1000,> 1000,> 1000,> 1000,> 1000,> 1000,"MIC (K. pneumoniae Ni9; [8]): > 1000 µg/mL; MIC (K. pneumoniae IT977; [8]): > 1000 µg/mL; IC50 (HaCaT cells): 279 ± 8 µg/mL; MBC [2, 7]: 1000 µg/mL; MIC [2, 7]: 500 µg/mL"
"C[C@@H]1O[C@@H](O[C@H]2[C@H](Oc3cc(O)c4c(c3)O[C@H](c3ccc(O)cc3)CC4=O)O[C@H](CO)[C@@H](O)[C@@H]2O)[C@H](O)[C@H](O)[C@H]1O [Naringin, naringin]",> 1000,> 1000,> 1000,> 1000,> 1000,> 1000,> 1000,> 1000,> 1000,> 1000,250,500,> 1000,> 1000,> 1000,> 1000,> 1000,> 1000,> 1000,> 1000,"IC50 (HaCaT cells): > 1000 µg/mL; MIC [2, 4]: 500 µg/mL; MBC [2, 5]: 1000 µg/mL; Bactericidal concentration (P. aeruginosa MTCC 2488): 1.4 mg/mL; IC50 (P. aeruginosa MTCC 2488): 570 µg/mL; reduction of biofilm formation (biomass), in words [3]: not significantly altered; MBC (P. aeruginosa MMA83): >1000 µg/mL"

# Reference: paper PMC8952364, “Polyphenols as Inhibitors of Antibiotic Resistant Bacteria—Mechanisms Underlying Rutin Interference with Bacterial Virulence” (Pharmaceuticals, 2022)
